# Measurements from ChEMBL document CHEMBL4325880, “Design, synthesis and biological evaluation of novel zanamivir derivatives as potent neuraminidase inhibitors” (Bioorg Med Chem Lett, 2018).
# How the values were obtained:
# Influenza A virus = test: Antiviral activity against Influenza A virus (A/WSN/1933(H1N1)) infected in MDCK cells assessed as reduction in virus-induced cytopathic effect measured everyday; type: functional, organism-based
# [1] = Cytotoxicity against MDCK cells assessed as reduction in cell viability after 72 hrs by CellTiter-Glo assay; type: cell-based, Canis lupus familiaris; details: dog
# [2] = Inhibition of Clostridium neuraminidase preincubated for 2 mins followed by neuraminidase fluorescent addition and measured after 30 mins by fluorescence assay
# [3] = Selectivity index, ratio of CC50 for MDCK cells to IC50 for Influenza A virus (A/WSN/1933(H1N1)); type: toxicity; details: dog, read-out: Ratio CC50/IC50
SMILES,IC50 (Influenza A virus; read-out: pIC50 (converted)) [µM],further results
CC(=O)N[C@H]1[C@H]([C@H](O)[C@H](O)CO)OC(C(=O)O)=C[C@@H]1NC(=N)NC(=O)CSc1ccc2ccccc2c1,0.0201,
COc1cc(CCC(=O)NC(=N)N[C@H]2C=C(C(=O)O)O[C@@H]([C@H](O)[C@H](O)CO)[C@@H]2NC(C)=O)cc(OC)c1OC,0.239,
CC(=O)N[C@H]1[C@H]([C@H](O)[C@H](O)CO)OC(C(=O)O)=C[C@@H]1NC(=N)NC(=O)Cc1ccc2ccccc2c1,0.055,
CC(=O)N[C@H]1[C@H]([C@H](O)[C@H](O)CO)OC(C(=O)O)=C[C@@H]1NC(=N)NC(=O)c1ccc([N+](=O)[O-])cc1,0.152,
COc1ccccc1CCC(=O)NC(=N)N[C@H]1C=C(C(=O)O)O[C@@H]([C@H](O)[C@H](O)CO)[C@@H]1NC(C)=O,0.196,
CC(=O)N[C@H]1[C@H]([C@H](O)[C@H](O)CO)OC(C(=O)O)=C[C@@H]1NC(=N)NC(=O)CC12CC3CC(CC(C3)C1)C2,0.275,
CC(=O)N[C@H]1[C@H]([C@H](O)[C@H](O)CO)OC(C(=O)O)=C[C@@H]1NC(=N)NC(=O)CC(C)CCC=C(C)C (stereo not given in full),0.541,
CC(=O)N[C@H]1[C@H]([C@H](O)[C@H](O)CO)OC(C(=O)O)=C[C@@H]1NC(=N)NC(=O)CCc1ccccc1C(F)(F)F,0.332,
CC(=O)N[C@H]1[C@H]([C@H](O)[C@H](O)CO)OC(C(=O)O)=C[C@@H]1NC(=N)NC(=O)CCc1ccc2ccccc2c1,0.0748,
CC(=O)N[C@H]1[C@H]([C@H](O)[C@H](O)CO)OC(C(=O)O)=C[C@@H]1NC(=N)NC(=O)CCCCC1CCCCC1,0.26,
CC(=O)N[C@H]1[C@H]([C@H](O)[C@H](O)CO)OC(C(=O)O)=C[C@@H]1NC(=N)NCCSc1ccccc1,39.4,
CC(=O)N[C@H]1[C@H]([C@H](O)[C@H](O)CO)OC(C(=O)O)=C[C@@H]1NC(=N)NC(=O)CCc1ccccc1,0.203,
CC(=O)N[C@H]1[C@H]([C@H](O)[C@H](O)CO)OC(C(=O)O)=C[C@@H]1NC(=N)NC(=O)CCc1ccc(N)cc1,0.176,
CCC(C)C(=O)NC(=N)N[C@H]1C=C(C(=O)O)O[C@@H]([C@H](O)[C@H](O)CO)[C@@H]1NC(C)=O (stereo not given in full),0.774,
CC(=O)N[C@H]1[C@H]([C@H](O)[C@H](O)CO)OC(C(=O)O)=C[C@@H]1NC(=N)NC(=O)CCCc1ccc(N)cc1,0.421,
CC(=O)N[C@H]1[C@H]([C@H](O)[C@H](O)CO)OC(C(=O)O)=C[C@@H]1NC(=N)NC(=O)CCCCCc1ccccc1,0.233,

SMILES,IC50 (Influenza A virus; read-out: pIC50 (converted)) [µM],further results
CC(=O)N[C@H]1[C@H]([C@H](O)[C@H](O)CO)OC(C(=O)O)=C[C@@H]1NC(=N)NC(=O)CCC1CCOC1 (stereo not given in full),1.2,
COc1ccccc1CC(=O)NC(=N)N[C@H]1C=C(C(=O)O)O[C@@H]([C@H](O)[C@H](O)CO)[C@@H]1NC(C)=O,0.209,
CC(=O)N[C@H]1[C@H]([C@H](O)[C@H](O)CO)OC(C(=O)O)=C[C@@H]1NC(=N)NC(=O)CSc1ccccc1,0.189,
CC(=O)N[C@H]1[C@H]([C@H](O)[C@H](O)CO)OC(C(=O)O)=C[C@@H]1NC(=N)NC(=O)/C=C/c1cc(F)cc(F)c1,0.166,
CC(=O)N[C@H]1[C@H]([C@H](O)[C@H](O)CO)OC(C(=O)O)=C[C@@H]1NC(=N)NC(=O)CCc1ccccc1Br,0.134,
CC(=O)N[C@H]1[C@H]([C@H](O)[C@H](O)CO)OC(C(=O)O)=C[C@@H]1NC(=N)NC(=O)Cc1ccccc1,0.046,
CC(=O)N[C@H]1[C@H]([C@H](O)[C@H](O)CO)OC(C(=O)O)=C[C@@H]1NC(=N)NC(=O)Cc1cccc2ccccc12,0.0984,
CC(=O)N[C@H]1[C@H]([C@H](O)[C@H](O)CO)OC(C(=O)O)=C[C@@H]1NC(=N)NC(=O)CCc1ccccc1C,0.462,
CC(=O)N[C@H]1[C@H]([C@H](O)[C@H](O)CO)OC(C(=O)O)=C[C@@H]1NC(=N)NC(=O)CCCOc1ccccc1,0.397,
CC(=O)N[C@H]1[C@H]([C@H](O)[C@H](O)CO)OC(C(=O)O)=C[C@@H]1NC(=N)NC(=O)CCCCCCCCCCOc1ccccc1,0.203,
CC(=O)N[C@H]1[C@H]([C@H](O)[C@H](O)CO)OC(C(=O)O)=C[C@@H]1NC(=N)NC(=O)Cc1ccc(F)cc1,,CC50 at 72 h [1]: > 100 µM; IC50 [2]: 35.4 µM; selectivity ratio [3]: > 149; IC50 (Influenza A virus; read-out: IC50): 0.67 µM
CC(=O)N[C@H]1[C@H]([C@H](O)[C@H](O)CO)OC(C(=O)O)=C[C@@H]1NC(=N)NCCc1ccc2ccccc2c1,34.7,
CC(=O)N[C@H]1[C@H]([C@H](O)[C@H](O)CO)OC(C(=O)O)=C[C@@H]1NC(=N)NC(=O)CCOc1ccccc1,0.18,
"CC(=O)N[C@@H]1C(NC(=N)NC(=O)c2ccc(-c3ccc(O)cc3)cc2)C=C(C(=O)O)O[C@H]1[C@H](O)C(O)CO (single isomer, unassigned)",,CC50 at 72 h [1]: > 100 µM; IC50 [2]: 97.5 µM; selectivity ratio [3]: > 14; IC50 (Influenza A virus; read-out: IC50): 6.95 µM
CC(=O)N[C@H]1[C@H]([C@H](O)[C@H](O)CO)OC(C(=O)O)=C[C@@H]1NC(=N)N [ZANAMIVIR],,CC50 at 72 h [1]: > 100 µM; IC50 [2]: 130 µM; selectivity ratio [3]: > 115; IC50 (Influenza A virus; read-out: IC50): 0.873 µM
